# In patent US20030187007A1, “Inhibitors of protein kinase for the treatment of disease” (priority 2001, published 2003):
# pIC50: −log10 of the molar value. Counter-ions that a name gives are not always drawn.
# Tests used:
# Type in all cases: biochemical
# KDR = KDR (Homo sapiens, UniProt P35968); assay: Enzyme assay for  (KDR), IC50 determination; conditions: 50 nM KDR, 500 μM ATP
# Description: Enzyme assays for IC50 determinations were performed in 96-well titer plates, in a total reaction volume of 50 μL. Each reaction contained 1.5 μL of appropriate dilutions of inhibitor, 50 mM Hepes, pH 7.4, 1 mM DTT, 10 mM magnesium chloride, 2 mM phospho-poly(E4Y) (Sigma Chemical Company), 500 μM unlabeled ATP, 0.0025 μM [^33P]ATP (Amersham Pharmacia Biotech), and 50 nM KDR. All components except KDR were added to the wells, and the reaction was started by the addition of the enzyme. The reactions were mixed and incubated at room temperature for 1 hr, after which the reactions were quenched by the addition of 50 μL of 8% phosphoric acid. At this point, 90 μL aliquots of the samples were applied to positively charged DEAE 96-well filter plates (Millipore Corporation MADENOB10). The plates were incubated for 30 min at room temperature. The samples were aspirated and the wells were washed 3 times with 200 μL of 0.5% phosphoric acid. To each well, 50 μL of scintillation cocktail was added and counted for 60 sec in a TopCount microplate scintillation counter (Packard Instrument Company). The concentration of a compound that inhibited the activity of KDR by 50% (IC50) was determined based its inhibition curve.
# CDK5 complexed with p25 = CDK5 complexed with p25 (Homo sapiens, UniProt Q00535); assay: Cyclin dependent kinase activity assay, phosphorylation of synthetic peptide PKTPKKAKKLRRR; conditions: CDK5 complexed with p25, 0.1 mM ATP; read-out: CDK 5 Activity*
# Chain of CDK5 complexed with p25 (Q00535 whole entry): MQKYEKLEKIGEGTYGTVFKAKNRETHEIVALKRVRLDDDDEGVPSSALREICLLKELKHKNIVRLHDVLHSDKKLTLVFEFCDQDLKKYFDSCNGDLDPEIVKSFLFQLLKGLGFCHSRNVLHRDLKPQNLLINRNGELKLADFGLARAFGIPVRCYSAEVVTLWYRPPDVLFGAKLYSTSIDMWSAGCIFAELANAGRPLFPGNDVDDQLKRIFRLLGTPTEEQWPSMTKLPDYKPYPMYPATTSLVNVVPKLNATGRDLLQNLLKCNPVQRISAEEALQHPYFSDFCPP
# Chain of CDK5 complexed with p25 (Q15078 99-307 partner limits assumed): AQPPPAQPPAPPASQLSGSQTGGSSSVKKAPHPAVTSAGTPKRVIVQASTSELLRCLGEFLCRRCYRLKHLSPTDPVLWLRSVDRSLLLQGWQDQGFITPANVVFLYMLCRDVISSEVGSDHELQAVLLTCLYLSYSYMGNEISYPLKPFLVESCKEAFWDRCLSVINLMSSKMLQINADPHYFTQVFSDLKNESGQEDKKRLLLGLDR
# Description: (§1) The assay of cyclin dependent kinase activity was determined by monitoring the phosphorylation of a synthetic peptide, PKTPKKAKKLRRR. The assay mixture contained 0.1 mM cold ATP, ^33P-γ-ATP (2000-4000 cpm/μL), 0.1 mM peptide, 1 mM DTT, and 10 mM MgCl2 in 100 mM HEPES buffer pH 7.4. The assay mixture, along with inhibitor and CDK enzyme (0.3-0.4 U/mL; either CDK5 complexed with p25, CDK2 complexed with complexed with cyclin A), was mixed together in a microtiter plate in a final volume of 40 μL, sealed and incubated for 2 hours at 30° C. Following incubation, a 15 μL aliquot was added to a Whatman P81 filtration plate containing 100 μL 0.5% phosphoric acid. This mixture was allowed to stand for 5 minutes prior to filtration on a vacuum manifold. The filter plate was washed with 5 successive additions of 300 μL 0.5% phosphoric acid. The filtration plate was air dried for 10 minutes before sealing the bottom. After addition of scintillation fluid to the sealed plate, phosphorylated peptide was quantified in a scintillation counter.
# [1] = target: CDK2 complexed with cyclin A (Homo sapiens, UniProt P24941); assay: as above; conditions: 0.1 mM ATP, read-out: CDK 2 Activity*
# Description: as §1
# Chain of KDR (P35968 20-1356): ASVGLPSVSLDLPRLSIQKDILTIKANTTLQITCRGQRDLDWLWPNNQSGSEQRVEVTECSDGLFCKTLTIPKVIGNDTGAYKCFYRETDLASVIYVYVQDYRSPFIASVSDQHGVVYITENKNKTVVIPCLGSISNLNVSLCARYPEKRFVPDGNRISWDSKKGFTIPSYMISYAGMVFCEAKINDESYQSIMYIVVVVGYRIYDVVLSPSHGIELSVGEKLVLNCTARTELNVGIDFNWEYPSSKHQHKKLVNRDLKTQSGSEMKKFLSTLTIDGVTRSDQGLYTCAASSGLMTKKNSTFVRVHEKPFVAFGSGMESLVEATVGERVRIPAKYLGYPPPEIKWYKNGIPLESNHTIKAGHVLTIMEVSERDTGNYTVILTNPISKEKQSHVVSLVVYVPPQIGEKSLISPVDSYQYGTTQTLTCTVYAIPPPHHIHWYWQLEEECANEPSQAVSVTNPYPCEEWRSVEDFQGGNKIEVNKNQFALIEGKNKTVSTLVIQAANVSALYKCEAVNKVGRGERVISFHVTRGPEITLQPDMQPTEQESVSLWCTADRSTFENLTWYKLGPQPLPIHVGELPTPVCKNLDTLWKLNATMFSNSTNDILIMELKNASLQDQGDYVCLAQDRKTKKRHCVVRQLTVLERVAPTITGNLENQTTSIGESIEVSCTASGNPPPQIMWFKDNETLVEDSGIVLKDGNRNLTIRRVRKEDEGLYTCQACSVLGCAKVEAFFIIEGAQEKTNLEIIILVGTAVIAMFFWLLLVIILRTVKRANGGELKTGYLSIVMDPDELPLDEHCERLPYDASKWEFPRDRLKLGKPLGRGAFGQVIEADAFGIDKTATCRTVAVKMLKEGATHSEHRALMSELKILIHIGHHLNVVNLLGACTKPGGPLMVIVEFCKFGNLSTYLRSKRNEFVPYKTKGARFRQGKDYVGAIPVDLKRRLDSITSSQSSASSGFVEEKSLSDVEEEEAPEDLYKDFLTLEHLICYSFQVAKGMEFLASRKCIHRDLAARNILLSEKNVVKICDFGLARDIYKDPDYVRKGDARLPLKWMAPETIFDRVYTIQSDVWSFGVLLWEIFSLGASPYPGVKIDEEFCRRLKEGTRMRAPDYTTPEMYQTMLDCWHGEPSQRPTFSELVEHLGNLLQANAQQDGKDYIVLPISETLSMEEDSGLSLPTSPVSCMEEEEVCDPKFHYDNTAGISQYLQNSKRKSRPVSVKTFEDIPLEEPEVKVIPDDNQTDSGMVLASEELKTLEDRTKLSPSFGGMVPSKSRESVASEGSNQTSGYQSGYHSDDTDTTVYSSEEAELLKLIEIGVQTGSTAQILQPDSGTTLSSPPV
SMILES,pIC50 (KDR),pIC50 (CDK5 complexed with p25),pIC50 [1]
"NC(=O)N/N=C/c1cc(-c2ccc(O)cc2)ccc1O [Example 22, 5-(4-Hydroxyphenyl)salicylaldehyde semicarbazone hydrochloride]",4.70 to 6.00,> 6.30,> 6.30
"NC(=O)N/N=C/c1cc(-c2ccc(O)c(F)c2)ccc1O [Example 24, 5-(3-Fluoro-4-hydroxyphenyl)salicylaldehyde semicarbazone hydrochloride]",4.70 to 6.00,> 6.30,> 6.30
"NC(=S)N/N=C/c1cc(-c2ccc(O)c(O)c2)ccc1O [Example 25, 5-(3,4-Dihydroxyphenyl)salicylaldehyde thiosemicarbazone]",> 6.00,> 6.30,> 6.30
"Nc1nccc(-c2cc(-c3ccc(O)cc3)ccc2O)n1 [Example 57, 3-(2-Amino-pyrimidin-4-yl)-biphenyl-4,4′-diol]",> 6.00,> 6.30,> 6.30
"Nc1nc(-c2cc(-c3ccc(O)cc3)ccc2O)cs1 [Example 61, 3-(2-Amino-thiazol-4-yl)-biphenyl-4,4′-diol]",4.70 to 6.00,> 6.30,> 6.30
"Nc1cc(-c2ccc(O)c(-c3ccnc(N)n3)c2)ccn1 [Example 67, 4-(2-Amino-pyridin-4-yl)-2-(2-amino-pyrimidin-4-yl)-phenol]",> 6.00,–,> 6.30
"Nc1nc(-c2cc(-c3ccc(O)cc3)ccc2O)cc(N2CCC[C@@H]2CO)n1 [Example 80, 3-[2-Amino-6-(2S-hydroxymethyl-pyrrolidin-1-yl)-pyrimidin-4-yl]-biphenyl-4,4′-diol]",4.70 to 6.00,> 6.30,> 6.30
"Nc1nc(-c2cccc(CO)c2)cc(-c2cc(-c3ccc(O)cc3)ccc2O)n1 [Example 84, 3-[2-Amino-6-(3-hydroxymethyl-phenyl)-pyrimidin-4-yl]-biphenyl-4,4′-diol]",> 6.00,> 6.30,> 6.30
"Nc1nc(-c2ccc(CO)cc2)cc(-c2cc(-c3ccc(O)cc3)ccc2O)n1 [Example 85, 3-[2-Amino-6-(4-hydroxymethyl-phenyl)-pyrimidin-4-yl]-biphenyl-4,4′-diol]",> 6.00,> 6.30,> 6.30
"Nc1nc(N[C@H](CO)Cc2ccccc2)cc(-c2cc(-c3ccc(O)cc3)ccc2O)n1 [Example 87, 3-[2-Amino-6-(1S-benzyl-2-hydroxy-ethylamino)-pyrimidin-4-yl]-biphenyl-4,4′-diol]",4.70 to 6.00,> 6.30,> 6.30
"Nc1nc(-c2cccc([N+](=O)[O-])c2)cc(-c2cc(-c3ccc(O)cc3)ccc2O)n1 [Example 88, 3-[2-Amino-6-(3-nitro-phenyl)-pyrimidin-4-yl]-biphenyl-4,4′-diol]",4.70 to 6.00,> 6.30,> 6.30
"Nc1nc(-c2ccc([N+](=O)[O-])cc2)cc(-c2cc(-c3ccc(O)cc3)ccc2O)n1 [Example 89, 3-[2-Amino-6-(4-nitro-phenyl)-pyrimidin-4-yl]-biphenyl-4,4′-diol]",4.70 to 6.00,> 6.30,> 6.30
"Nc1ccc(-c2cc(-c3cc(-c4ccc(O)cc4)ccc3O)nc(N)n2)cc1 [Example 90, 3-[2-Amino-6-(4-amino-phenyl)-pyrimidin-4-yl]-biphenyl-4,4′-diol]",> 6.00,> 6.30,> 6.30
"Nc1cccc(-c2cc(-c3cc(-c4ccc(O)cc4)ccc3O)nc(N)n2)c1 [Example 91, 3-[2-Amino-6-(3-amino-phenyl)-pyrimidin-4-yl]-biphenyl-4,4′-diol]",> 6.00,> 6.30,> 6.30
"Nc1nc(-c2ccsc2)cc(-c2cc(-c3ccc(O)cc3)ccc2O)n1 [Example 113, 3-(2-Amino-6-thiophen-3-yl-pyrimidin-4-yl)-biphenyl-4,4′-diol]",4.70 to 6.00,–,–
Nc1nc(NCc2ccccc2F)cc(-c2cc(-c3ccc(O)cc3)ccc2O)n1 [Example 116],> 6.00,–,–
"COc1cccc(CNc2cc(-c3cc(-c4ccc(O)cc4)ccc3O)nc(N)n2)c1 [Example 117, 3-[2-Amino-6-(3-methoxy-benzylamino)-pyrimidin-4-yl]-biphenyl-4,4′-diol]",> 6.00,–,–
"COc1ccc(CNc2cc(-c3cc(-c4ccc(O)cc4)ccc3O)nc(N)n2)cc1 [Example 118, 3-[2-Amino-6-(4-methoxy-benzylamino)-pyrimidin-4-yl]-biphenyl-4,4′-diol]",> 6.00,–,–
"Nc1nc(Nc2ccc(O)cc2F)cc(-c2cc(-c3ccc(O)cc3)ccc2O)n1 [Example 119, 3-[2-Amino-6-(2-fluoro-4-hydroxyphenylamino)-pyrimidin-4-yl]-biphenyl-4,4′-diol]",4.70 to 6.00,–,–

# More lines, now with the values ahead:
pIC50 (KDR),pIC50 (CDK5 complexed with p25),pIC50 [1],SMILES
4.70 to 6.00,> 6.30,> 6.30,"NC(=S)N/N=C/c1cc(-c2ccc(O)c(F)c2)ccc1O [Example 23, 5-(3-Fluoro-4-hydroxyphenyl)salicylaldehyde thiosemicarbazone]"
4.30 to 4.70,> 6.30,> 6.30,"NC(=S)N/N=C/c1cc(-c2ccc3[nH]ccc3c2)ccc1O [Example 36, 5-(5-Indolyl)salicylaldehyde thiosemicarbazone]"
> 6.00,> 6.30,> 6.30,"Nc1nc(N)nc(-c2cc(-c3ccc(O)cc3)ccc2O)n1 [Example 58, 3-(4.6-Diamino-[1,3,5]triazin-2-yl)-biphenyl-4,4′-diol]"
> 6.00,5.70 to 6.30,5.70 to 6.30,"Nc1nccc(-c2cc(-c3ccc(C=O)o3)ccc2O)n1 [Example 59, 5-[3-(2-Amino-pyrimidin-4-yl)-4-hydroxy-phenyl]-furan-2-carbaldehyde]"
> 6.00,> 6.30,5.30 to 5.70,"Nc1nccc(-c2cc(-c3ccc4[nH]ccc4c3)ccc2O)n1 [Example 60, 2-(2-Amino-pyrimidin-4-yl)-4-(1H-indol-5-yl)-phenol]"
4.70 to 6.00,> 6.30,> 6.30,"Nc1nc(-c2cc(-c3ccc(O)cc3)ccc2O)cc(N2CCOCC2)n1 [Example 81, 3-(2-Amino-6-morpholin-4-yl-pyrimidin-4-yl)-biphenyl-4,4′-diol]"
> 6.00,> 6.30,> 6.30,"Nc1nc(-c2cc(-c3ccc(O)cc3)ccc2O)cc(-c2ccccc2CO)n1 [Example 83, 3-[2-Amino-6-(2-hydroxymethyl-phenyl)-pyrimidin-4-yl-biphenyl-4,4]-diol]"
4.70 to 6.00,> 6.30,> 6.30,"Nc1nc(N[C@@H](CO)Cc2ccccc2)cc(-c2cc(-c3ccc(O)cc3)ccc2O)n1 [Example 86, 3-[2-Amino-6-(1R-benzyl-2-hydroxy-ethylamino)-pyrimidin-4-yl]-biphenyl-4,4′-diol]"
> 6.00,–,–,Nc1nc(-c2ccc3[nH]ccc3c2)cc(-c2cc(-c3ccc(O)cc3)ccc2O)n1 [Example 114]
4.70 to 6.00,–,–,"Nc1nc(NCc2cccc(F)c2)cc(-c2cc(-c3ccc(O)cc3)ccc2O)n1 [Example 115, 3-[2-Amino-6-(3-fluoro-benzylamino)-pyrimidin-4-yl]-biphenyl-4,4′-diol]"
